Tests used:
Assay type in all cases: cell-based
[1] = Cytotoxicity against human HOP62 cell line; details: HOP-62 cells
[2] = Cytotoxicity against human HCT116 cell line; details: HCT-116 cells
[3] = Cytotoxicity against human SF539 cell line; details: SF-539 cells
[4] = Cytotoxicity against human UACC62 cell line; details: UACC-62 cells
[5] = Cytotoxicity against human SN12C cell line; details: SN12C cells
[6] = Cytotoxicity against human OVCAR-3 cell line; details: OVCAR-3 cells
[7] = Cytotoxicity against human DU145 cell line; details: DU-145 cells
[8] = Cytotoxicity against human MDA-MB-435 cell line; details: MDA-MB-435 cells

Structure (SMILES)	GI50 [1] [µM]	GI50 [2] [µM]	GI50 [3] [µM]	GI50 [4] [µM]	GI50 [5] [µM]	GI50 [6] [µM]	GI50 [7] [µM]	GI50 [8] [µM]
COc1cc2c(cc1OC)-c1c(c3ccc([N+](=O)[O-])cc3c(=O)n1CCCN)C2=O	1.55	0.589	0.005	2.51	0.851	8.13	0.676	6.46
COc1ccc2c(c1OC)-c1c(c3ccc([N+](=O)[O-])cc3c(=O)n1CCCBr)C2=O	21.9	19.1		18.2	36.3	> 100		
COc1cc2c(cc1OC)-c1c(c3ccc([N+](=O)[O-])cc3c(=O)n1CCCBr)C2=O	20.9	4.27	10.5	2.82	4.27	70.8	24.5	25.1
COc1ccc2c(c1)C(=O)c1c-2n(CCCCl)c(=O)c2cc([N+](=O)[O-])ccc12	0.295	0.794	0.027	< 0.01	< 0.01	3.39	0.036	3.24
COc1ccc2c(c1)C(=O)c1c-2n(CCCN=[N+]=[N-])c(=O)c2cc([N+](=O)[O-])ccc12	< 0.001	< 0.001	< 0.001			0.155	< 0.001	0.251
COc1cc2c(c(OC)c1OC)C(=O)[C@@H]1c3ccc([N+](=O)[O-])cc3C(=O)N(CCCBr)[C@H]21 (relative stereo)	< 0.01	< 0.01	0.468	< 0.01	0.257	< 0.01	1.02	< 0.01
COc1ccc2c(c1OC)-c1c(c3ccc([N+](=O)[O-])cc3c(=O)n1CCCN)C2=O	8.32	1.51	1.35	1.1	0.977	14.1	0.832	9.12
COc1cccc2c1-c1c(c3ccc([N+](=O)[O-])cc3c(=O)n1CCCCl)C2=O	5.5	2.45		2.4	15.8	50.1		50.1
COc1ccc2c(c1OC)-c1c(c3ccc([N+](=O)[O-])cc3c(=O)n1CCCN=[N+]=[N-])C2=O	5.01	2.95	5.24	4.57	11.5	56.2	4.9	72.4
COc1cc2c(c(OC)c1OC)-c1c(c3ccc([N+](=O)[O-])cc3c(=O)n1CCCN)C2=O	0.933	0.832	1.38	9.12	3.98	10.7	7.24	0.871
COc1ccc2c(c1)C(=O)c1c-2n(CCCN)c(=O)c2cc([N+](=O)[O-])ccc12	< 0.01	< 0.01	< 0.01	< 0.01	< 0.01			
COc1cc2c(c(OC)c1OC)C(=O)c1c-2n(CCCN)c(=O)c2cc([N+](=O)[O-])ccc12	0.676	0.138	1.35	6.61	2.09	1.05	1.15	1.07
COc1cc2c(cc1OC)-c1c(c3ccc([N+](=O)[O-])cc3c(=O)n1CCCN=[N+]=[N-])C2=O	29.5	31.6	36.3	51.3	46.8	> 100	87.1	> 100
COc1cc2c(cc1OC)[C@@H]1[C@H](C2=O)c2ccc([N+](=O)[O-])cc2C(=O)N1CCCBr (relative stereo)	13.8	4.57	11.7	> 100	7.59	2.04	14.5	2.82
COc1cc2c(c(OC)c1OC)C(=O)c1c-2n(CCCN=[N+]=[N-])c(=O)c2cc([N+](=O)[O-])ccc12	30.9	36.3	38.9	39.8	> 100	> 100	> 100	> 100
NCCCn1c2c(c3ccc([N+](=O)[O-])cc3c1=O)C(=O)c1cc3c(cc1-2)OCO3	< 0.01	< 0.01	< 0.01	0.017	< 0.01	0.302	< 0.01	0.025
COc1cc2c(c(OC)c1OC)-c1c(c3ccc([N+](=O)[O-])cc3c(=O)n1CCCN=[N+]=[N-])C2=O	15.5	14.1	13.5	32.4	30.2	45.7	70.8	> 100
COc1cc2c(c(OC)c1OC)-c1c(c3ccc([N+](=O)[O-])cc3c(=O)n1CCCBr)C2=O	15.8	18.6	4.47	30	19.5	> 100		> 100
